The values below come from ChEMBL document CHEMBL1123398, “Conformationally restricted inhibitors of angiotensin converting enzyme: synthesis and computations” (J Med Chem, 1986).

The structures appear in SMILES notation.

One may read the IC50 as the concentration that inhibits the measured activity by half. Low values mean inhibition by little substance, high ones a need for much substance.

The target of test [1] is T1, Angiotensin-converting enzyme (Homo sapiens, UniProt P12821). The test is described as follows: Inhibitory concentration against Angiotensin I converting enzyme.
T1 sequence (P12821 whole entry): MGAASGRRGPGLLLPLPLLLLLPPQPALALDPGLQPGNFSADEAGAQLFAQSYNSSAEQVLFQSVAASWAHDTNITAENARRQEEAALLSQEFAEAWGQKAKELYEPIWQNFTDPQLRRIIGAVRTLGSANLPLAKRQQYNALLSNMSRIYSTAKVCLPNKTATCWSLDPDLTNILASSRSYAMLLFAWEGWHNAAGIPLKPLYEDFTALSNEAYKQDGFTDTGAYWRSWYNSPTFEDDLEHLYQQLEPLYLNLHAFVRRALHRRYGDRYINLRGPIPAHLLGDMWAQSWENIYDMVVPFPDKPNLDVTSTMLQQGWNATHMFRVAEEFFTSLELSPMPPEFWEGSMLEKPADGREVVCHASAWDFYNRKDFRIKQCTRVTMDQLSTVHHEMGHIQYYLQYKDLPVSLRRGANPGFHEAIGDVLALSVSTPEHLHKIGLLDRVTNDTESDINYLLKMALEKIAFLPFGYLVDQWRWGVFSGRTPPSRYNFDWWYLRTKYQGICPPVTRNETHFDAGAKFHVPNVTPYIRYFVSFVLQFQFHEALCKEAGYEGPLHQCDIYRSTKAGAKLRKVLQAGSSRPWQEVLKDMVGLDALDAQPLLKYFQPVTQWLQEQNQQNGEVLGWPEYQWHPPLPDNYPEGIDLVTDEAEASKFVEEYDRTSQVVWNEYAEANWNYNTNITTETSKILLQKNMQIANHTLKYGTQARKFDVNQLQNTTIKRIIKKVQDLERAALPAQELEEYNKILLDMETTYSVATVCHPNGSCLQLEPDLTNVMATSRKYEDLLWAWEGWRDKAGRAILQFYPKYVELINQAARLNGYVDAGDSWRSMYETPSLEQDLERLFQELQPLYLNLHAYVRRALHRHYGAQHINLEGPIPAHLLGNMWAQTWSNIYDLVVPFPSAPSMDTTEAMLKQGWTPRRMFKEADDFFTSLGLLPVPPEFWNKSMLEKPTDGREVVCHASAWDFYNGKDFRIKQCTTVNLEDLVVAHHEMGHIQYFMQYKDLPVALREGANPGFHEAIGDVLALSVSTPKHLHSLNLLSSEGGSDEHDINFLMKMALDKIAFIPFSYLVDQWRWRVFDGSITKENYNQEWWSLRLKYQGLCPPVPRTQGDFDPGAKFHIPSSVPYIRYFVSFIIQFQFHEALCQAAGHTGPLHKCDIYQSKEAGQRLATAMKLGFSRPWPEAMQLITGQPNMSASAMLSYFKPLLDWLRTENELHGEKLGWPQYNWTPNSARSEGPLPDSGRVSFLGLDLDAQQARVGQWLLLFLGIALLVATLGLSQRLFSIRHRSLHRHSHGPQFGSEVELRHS
Test [2] has as its target T1, Angiotensin-converting enzyme. The test is described as follows: Inhibitory concentration (isomer B) against Angiotensin I converting enzyme.
Test [3] has the same target. As to the kind of experiment: Inhibitory concentration (isomer A) against Angiotensin I converting enzyme.
For test [4] the target is unchanged. As to the kind of experiment: Inhibitory concentration against Angiotensin I converting enzyme; IA is Inactive with 0% inhibition at 3.3 x 10e-4;.

`NC1CCCCCN(CC(=O)O)C1=O` (stereo unspecified) displayed an IC50 in test [1] of 440 µM.

For the molecule `O=C(O)CN1CCCCC[C@H](N[C@@H](CCc2ccccc2)C(=O)O)C1=O`, in test [2], the IC50 stood at 0.002 µM.

On to `O=C(O)CN1CCCCCCC(NC(CCc2ccccc2)C(=O)O)C1=O` (stereo unspecified), for which the IC50 in test [2] amounted to 0.0081 µM; in test [3], 1.3 µM.

In the case of `O=C(O)CN1CCC(NC(CCc2ccccc2)C(=O)O)C1=O` (stereo unspecified), the 50% inhibitory concentration (IC50) in test [2] turned out to be 19 µM; in test [3] it was 12 µM.

In the case of `O=C(O)CN1CCCC(NC(CCc2ccccc2)C(=O)O)C1=O` (stereo unspecified), the results for the half-inhibitory concentration (IC50) in test [2] and in test [3] were 1.7 µM and 0.43 µM, respectively.

On to `O=C(O)CN1CCCCC[C@@H](N[C@H](CCc2ccccc2)C(=O)O)C1=O`, for which it took 0.092 µM to reach half-maximal inhibition in test [2] (IC50).

As for `O=C(O)CN1CCCCC(NC(CCc2ccccc2)C(=O)O)C1=O` (stereo unspecified), the half-maximal inhibitory concentration (IC50) stood at 0.019 µM in test [2] and 0.7 µM in test [3].

For `NC1CCCN(CC(=O)O)C1=O` (stereo unspecified), in test [1], the midpoint of inhibition, the IC50, lay at 1700 µM.

Take `NC1CCCCN(CC(=O)O)C1=O` (stereo unspecified): half-maximal inhibition in test [1] (IC50) required 480 µM.

Consider `NC1CCN(CC(=O)O)C1=O` (stereo unspecified), for which the IC50 result in test [4] is “Not Active”.

On to `O=C(O)CN1CCCCCC(NC(CCc2ccccc2)C(=O)O)C1=O` (stereo unspecified), for which the IC50 in test [2] was 0.0048 µM; in test [3] it was 1.7 µM.
